According to publication PMC7269505, “An Engineered Double Lipid II Binding Motifs-Containing Lantibiotic Displays Potent and Selective Antimicrobial Activity against Enterococcus faecium” (Antimicrobial Agents and Chemotherapy, 2020):
Where “and” joins values, the source holds several entries; their conditions need not be identical. Equal values may be shown once. Read-outs that look alike come from different tables or passages of the source. No end group written: not given here.

Tests used:
E. faecium LMG16003 [1] = assay: Antimicrobial activity of TL19 mutants (agar spot assay, Fig. 5d); format: cell-based, Enterococcus faecium; settings: 1 nmol peptide, after removal of the leader peptide with NisP (Fig. 5d)
Source text: A highly conserved glutamate in HalA1 (Glu22) is essential for binding to its target lipid II ([12], [15], [16]). Mutating the glutamate residue in the CTLTXEC motif to alanine or glutamine completely abolished antibacterial activity ([15]). […] Therefore, either Glu34 in TL19 was mutated to Ala, Thr2 in TL19 was mutated to Asp, or both mutations were installed together in the same TL19 variant. […] NisC-catalyzed cyclization of the mutated peptides was investigated using CDAP treatment under reducing conditions followed by MS analysis.
FIG 5 Importance of both lipid II binding motifs for antimicrobial activity against E. faecium LMG16003. MALDI-TOF MS data of TL19 or TL19 mutants before (blue) and after (red) treated with CDAP. (a) TL19 (2Asp); (b) TL19 (34Ala); (c) TL19 (2Asp, 34Ala). (d) Antimicrobial activity for TL19 mutants against E. faecium LMG16003: 1, TL19 (1 nmol); 2, TL19 (2Asp) (1 nmol); 3, TL19 (34Ala) (1 nmol); 4, TL19 (2Asp, 34Ala) (1 nmol); 5, TL19 (2Asp) (1 nmol) plus TL19 (34Ala) (1 nmol); 6, negative control (buffer).

[2] = tested on: E. faecium ATCC U0317 (ACRE); assay: MIC by broth microdilution; format: cell-based, Enterococcus faecium; settings: cation-adjusted MHB, approx. 5 × 10^5 cells per ml, 20 h, 37°C, triplicates
Procedure: (§1) MIC was evaluated by broth microdilution according to the standard guidelines ([45]). Briefly, the test medium was cation-adjusted Mueller-Hinton broth (MHB). Cell concentration was adjusted to approximately 5 × 10^5 cells per ml. After 20 h of incubation at 37°C, the MIC was defined as the lowest concentration of antibiotic with no visible growth. Each experiment was performed in triplicates.

Escherichia coli GSK 12 = assay: MIC by broth microdilution; format: cell-based; settings: cation-adjusted MHB, approx. 5 × 10^5 cells per ml, 20 h, 37°C, triplicates
Procedure: as §1

Micrococcus flavus = assay: Screening of antibacterial activity by spot-on-lawn assay; format: cell-based; settings: TCA-precipitated peptide 5 μl plus 1 μl NisP, GM17 0.8% agar, 30°C overnight (Fig. S1)
Procedure: To assess the antibacterial activity of TCA-precipitated samples on a agar plate, an overnight culture of Micrococcus flavus was added to the GM17 containing 0.8% (wt/vol) agar (at 42°C), and then the mixture was poured onto the plates, 30 ml per plate. After that, 5 μl of the peptides together with 1 μl of NisP were added to the plates, and the plates were transferred to the 30°C incubator for incubation overnight.

E. faecium = assay: MIC comparison across E. faecium strains; format: cell-based, Enterococcus faecium; settings: from MIC values; for higher antibacterial activity than nisin(1-22): antibiotic-resistant E. faecium
Procedure: as §1

E. faecium 4Tom19 = format: cell-based, Enterococcus faecium
Procedure: as §1

E. faecium 6Tom18 = format: cell-based, Enterococcus faecium
Procedure: as §1

[3] = tested on: E. faecium ATCC E1162 (ARE); format: cell-based, Enterococcus faecium
Procedure: as §1

[4] = tested on: E. faecium ATCC E1321 (AGRE); format: cell-based, Enterococcus faecium
Procedure: as §1

[5] = tested on: E. faecium ATCC HF50105 (ETVRE); format: cell-based, Enterococcus faecium
Procedure: as §1

[6] = tested on: E. faecium ATCC TX0082 (AEKVRE); format: cell-based, Enterococcus faecium
Procedure: as §1

[7] = tested on: E. faecium ATCC TX0133a04; format: cell-based, Enterococcus faecium
Procedure: as §1

E. faecium LMG11423 = format: cell-based, Enterococcus faecium
Procedure: as §1

[8] = tested on: E. faecium LMG16003 (VRE); format: cell-based, Enterococcus faecium
Procedure: as §1

[9] = tested on: E. faecalis LMG16216 (VRE); format: cell-based, Enterococcus faecalis
Procedure: as §1

E. faecalis LMG8222 = format: cell-based, Enterococcus faecalis
Procedure: as §1

E. faecalis LMGV583 = format: cell-based, Enterococcus faecalis
Procedure: as §1

S. aureus LMG10147 = format: cell-based, Staphylococcus aureus
Procedure: as §1

B. cereus ATCC 10987 = format: cell-based, Bacillus cereus
Procedure: as §1

B. cereus ATCC 14579 = format: cell-based, Bacillus cereus
Procedure: as §1

A. baumannii LMG01041 = format: cell-based, Acinetobacter baumannii
Procedure: as §1

[10] = tested on: E. faecium (LMG16003; vancomycin-resistant strain); assay: Time-kill assay; format: cell-based, Enterococcus faecium; settings: MHB, 37°C, CFU counts, triplicates
Procedure: This assay was performed according to a previously described procedure ([29]). An overnight culture of cells (Enterococcus faecium LMG 16003; vancomycin-resistant strain) was diluted 50-fold in MHB and incubated at 37°C with aeration at 220 rpm. Bacteria were grown to an OD of 0.5, and then the cell concentration was adjusted to ≈5 × 10^5 cells per ml. Bacteria were then challenged with nisin (20 μM), nisin(1-22) (600 μM), or TL19 (10 μM) in culture tubes at 37°C and 220 rpm. (peptides at 10× MIC, a desirable concentration at the site of infection). Bacteria not treated with peptides were used as a negative control. At desired time points, 100-μl aliquots were taken, centrifuged at 8,000 × g for 2 min, and resuspended in 100 μl of MHB. Ten-fold serially diluted samples were plated on Mueller-Hinton agar (MHA) plates. After incubating at 37°C overnight, colonies were counted and CFU per milliliter was calculated. Each experiment was performed in triplicates.

[11] = tested on: E. faecium LMG16003 cells; assay: Propidium iodide assay for membrane pore formation; format: cell-based, Enterococcus faecium; settings: peptide 3 μM, propidium iodide 2.5 μg per ml, monitored for 3 h, excitation 533 nm, emission 617 nm
Procedure: The excitation and emission wavelengths on the fluorescence spectrometer were adjusted to 533 nm and 617 nm, respectively. E. faecium LMG16003 was grown to an OD600 of 0.6. To this cell suspension, propidium iodide (final concentration, 2.5 μg per ml) was added and incubated for 5 min. Peptides were added to a final concentration of 3 μM. Fluorescence was monitored for 3 h, with the peptide added after ∼60 s.

[12] = Complex formation with lipid II by thin-layer chromatography; format: binding; settings: TLC, lipid II-lys or lipid II-dap (Fig. 4b1 and b2), 4 nmol, 30 min at 25°C
Procedure: Purified lipid II-lys or lipid II-dap (4 nmol) was incubated in chloroform-methanol-water (2:3:1), in the presence of increasing TL19 concentrations (TL19/lipid II molar ratios ranging from 0.3 to 2:1) in a total volume of 30 μl. After incubating for 30 min at 25°C, the mixture was analyzed by thin-layer chromatography using chloroform-methanol-water-ammonia (88:48:10:1), and the spots were visualized by iodine vapor ([20], [26]).

E. faecium LMG16003 [13] = assay: Spot-on-lawn assay to measure peptide-lipid II complex formation; format: cell-based, Enterococcus faecium; settings: peptide 1 nmol, either lipid II-lys or lipid II-dap
Procedure: An overnight cultured E. faecium LMG16003 was added to 0.8% MHA (wt/vol; temperature, 42°C) at a final concentration of 0.1% (vol/vol), and then the mixture was poured onto the plates (30 ml for each). Binding of peptide and lipid II was further evaluated by incubating purified lipid II with peptide in various molar ratios ranging from 0.5 to 2 with respect to the peptides (1 nmol). Subsequently, a spot-on-lawn assay was used to analyze the antimicrobial activity. After the lipid II solution drops with peptide had dried, the plates were transferred to the 37°C incubator for overnight incubation.

[14] = broth microdilution, cation-adjusted MHB, approx. 5 × 10^5 cells per ml, 20 h, 37°C, triplicates

ITSISLCTPGCKTGALMGCNMKTATCHYCTLTVACMPSCN [TL19 (34Ala)]
antimicrobial activity relative to TL19 (E. faecium LMG16003 [1]): severely reduced the antimicrobial activity

ITSISLCTPGCKTGALMGCNMKTATCHCTLTVECMPSCN (also: bicyclic or more (positions not given here)) [TL17, incompletely modified, not all rings formed]
MIC [2]: 7.5 μM and 29 μg/ml | MIC (Escherichia coli GSK 12): > 15 μM and > 58 μg/ml | antimicrobial activity against Micrococcus flavus (Micrococcus flavus): potent antimicrobial activity | higher antibacterial activity than nisin(1-22) (E. faecium): 16 fold

C=C1NC(=O)[C@H]([C@@H](C)CC)NC(=O)[C@H](NC(=O)/C(=C/C)NC(=O)[C@@H](N)[C@@H](C)CC)CSC[C@@H](C(=O)N[C@H]2C(=O)N3CCC[C@H]3C(=O)NCC(=O)N[C@H](C(=O)N[C@@H](CCCCN)C(=O)N[C@H]3C(=O)NCC(=O)N[C@@H](C)C(=O)N[C@@H](CC(C)C)C(=O)N[C@@H](CCSC)C(=O)NCC(=O)N[C@H](C(=O)N[C@@H](CC(N)=O)C(=O)N[C@@H](CCSC)C(=O)N[C@@H](CCCCN)C(=O)O)CS[C@H]3C)CS[C@H]2C)NC(=O)[C@H](CC(C)C)NC1=O [Nisin(1-22), reference compound]
MIC (E. faecium 4Tom19; 4Tom19, 20 h): 60 µM | MIC (E. faecium 4Tom19; [14]): 128 µg/mL | MIC (E. faecium 6Tom18; 6Tom18, 20 h): 30 µM | MIC (E. faecium 6Tom18; [14]): 64 µg/mL | MIC ([3]; ATCC E1162, 20 h): > 60 µM | MIC [3, 14]: > 128 µg/mL | MIC ([4]; ATCC E1321, 20 h): 60 µM | MIC [4, 14]: 128 µg/mL | MIC ([5]; ATCC HF50105, 20 h): 30 µM | MIC [5, 14]: 64 µg/mL | MIC ([6]; ATCC TX0082, 20 h): 60 µM | MIC [6, 14]: 128 µg/mL | MIC ([7]; ATCC TX0133, 20 h): 60 µM | MIC [7, 14]: 128 µg/mL | MIC (E. faecium LMG11423; LMG11423, 20 h): 60 µM | MIC (E. faecium LMG11423; [14]): 128 µg/mL | MIC ([8]; LMG16003, 20 h): 60 µM | MIC [8, 14]: 128 µg/mL | MIC ([9]; LMG16216, 20 h): > 60 µM | MIC [9, 14]: > 128 µg/mL | MIC (E. faecalis LMG8222; LMG8222, 20 h): > 60 µM | MIC (E. faecalis LMG8222; [14]): > 128 µg/mL | MIC (E. faecalis LMGV583; LMGV583, 20 h): > 60 µM | MIC (E. faecalis LMGV583; [14]): > 128 µg/mL | MIC (S. aureus LMG10147; LMG10147, 20 h): 15 µM | MIC (S. aureus LMG10147; [14]): 32 µg/mL | MIC (B. cereus ATCC 10987; ATCC 10987, 20 h): > 60 µM | MIC (B. cereus ATCC 10987; [14]): > 128 µg/mL | MIC (B. cereus ATCC 14579; ATCC 14579, 20 h): 30 µM | MIC (B. cereus ATCC 14579; [14]): 64 µg/mL | MIC (A. baumannii LMG01041; LMG01041, 20 h): > 60 µM | MIC (A. baumannii LMG01041; [14]): > 128 µg/mL | MIC (Escherichia coli GSK 12): > 128 µg/mL | effect on population of viable cells within 11 h postexposition ([10]; 10× MIC: nisin(1-22) 600 μM): did not reduce the population of viable cells | killing in 48 h ([10]; 10× MIC: nisin(1-22) 600 μM): only slight killing was observed | pore formation (propidium iodide fluorescence increase) [11]: neither TL19 nor nisin(1-22) caused any fluorescence increase

IDSISLCTPGCKTGALMGCNMKTATCHYCTLTVECMPSCN [TL19 (2Asp), TL19 variant in which Thr2 was mutated to Asp]
antimicrobial activity relative to TL19 (E. faecium LMG16003 [1]): almost abolished the antimicrobial activity

IDSISLCTPGCKTGALMGCNMKTATCHYCTLTVACMPSCN [TL19 (2Asp, 34Ala)]
antimicrobial activity relative to TL19 (E. faecium LMG16003 [1]): decreased or completely abolished the antimicrobial activity

ITSISLCTPGCKTGALMGCNMKTATCHYCTLTVECMPSCN (also: bicyclic or more (positions not given here)) [TL19, lantibiotic with seven thioether rings]
MIC [2]: 1.9 μM and 7.6 μg/ml | MIC (Escherichia coli GSK 12): > 15 μM and > 60 μg/ml | antimicrobial activity against Micrococcus flavus (Micrococcus flavus): potent antimicrobial activity | time to complete killing ([10]; 10× MIC: nisin 20 μM, TL19 10 μM, ≈5 × 10^5 cells per ml): 24 h | pore formation (propidium iodide fluorescence increase) [11]: neither TL19 nor nisin(1-22) caused any fluorescence increase | lipid II migration at a low ratio (0.3:1) of TL19 to lipid II [12]: lipid II migration was significantly inhibited | antibacterial activity upon addition of lipid II at a 1:1 (peptide/lipid II) ratio (E. faecium LMG16003 [13]): still showed potent antibacterial activity | higher antibacterial activity than TL17 (E. faecium; E. faecium): 4 fold | higher antibacterial activity than nisin(1-22) (E. faecium): 64 fold
